In article PMC7377239, “Cardiovascular Effects of Polychlorinated Biphenyls and Their Major Metabolites” (Environmental Health Perspectives, 2020):
Where a name gives a salt, the structure may show the parent alone. Read-outs that look alike come from different tables or passages of the source.

Legend:
HUVECs = assay: High-content imaging cytotoxicity in HUVECs, 24 h; assay type: cell-based, human; details: Homo sapiens, HUVEC, 24 h, HUVECs; for viability at 0.01 µM / activity at 0.01 µM / viability at 0.1 µM / activity at 0.1 µM / viability at 1 µM / activity at 1 µM / viability at 10 µM / activity at 10 µM / viability at 100 µM / activity at 100 µM: 0.00 µM = 100.00; for viability at 0.1 µM / activity at 0.1 µM: 0.10 µM; for minimal effective concentration: top concentration 100.00 µM
Summary of the method: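 Confluent HUVEC monolayers, passages 1–5, received test chemicals for 24 h. Cytotoxicity was scored from triple-stain high-content images, with PODs defined by a one-SD deviation from 0.5% DMSO vehicle controls.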

[1] = tested on: iCell cardiomyocytes (human iPSC-derived cardiomyocytes); assay: High-content imaging of cytotoxicity and mitochondrial integrity in iPSC-CMs; assay type: cell-based; details: Homo sapiens, Cardiomyocyte; for viability at 0.01 µM / activity at 0.01 µM / viability at 0.1 µM / activity at 0.1 µM / viability at 1 µM / activity at 1 µM / viability at 10 µM / activity at 10 µM / viability at 100 µM / activity at 100 µM: 0.00 µM = 100.00; for viability at 0.1 µM / activity at 0.1 µM: 0.10 µM
Summary of the method: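 This assay measured cytotoxicity and mitochondrial integrity in iPSC cardiomyocytes held in 40μL maintenance medium. After compound exposure, a 2× staining solution with Hoechst 33342 (4μg/mL) and MitoTracker™ Orange (0.4μM) was applied for 15 min at 37°C. Cells were washed, fixed with 3.7% formaldehyde, imaged on DAPI and Cy3 channels, and scored in MetaXpress®.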

[2] = 24 hr, read-out: huvec.cyto.24hr
[3] = 24 hr, read-out: huvec.mito.24hr
[4] = 24 hr, read-out: huvec.mitoint.24hr
[5] = 24 hr, read-out: huvec.nma.24hr
[6] = 24 hrs, read-out: huvec.tc.24hrs
[7] = 1.5 h, 90min, read-out: cm.cam.90min
[8] = 1.5 h, 90min, read-out: cm.mii.90min
[9] = 1.5 h, 90min, read-out: cm.mito.90min
[10] = 1.5 h, 90min, read-out: cm.tc.90min
[11] = 24 h, 24hrs, read-out: cm.cam.24hrs
[12] = 24 h, 24hrs, read-out: cm.mii.24hrs
[13] = 24 h, 24hrs, read-out: cm.mito.24hrs
[14] = 24 h, 24hrs, read-out: cm.tc.24hrs

O=S(=O)(O)Oc1cc(Cl)c(-c2cc(Cl)ccc2Cl)cc1Cl [4-yl PCB 52 sulfate]
viability at 0.01 µM (HUVECs; [2]): 99.3% | activity at 0.01 µM (HUVECs; [3]): 98.2% | activity at 0.01 µM (HUVECs; [4]): 110% | activity at 0.01 µM (HUVECs; [5]): 98.4% | viability at 0.1 µM (HUVECs; [2]): 105% | activity at 0.1 µM (HUVECs; [3]): 105% | activity at 0.1 µM (HUVECs; [4]): 113% | activity at 0.1 µM (HUVECs; [5]): 96.2% | viability at 1 µM (HUVECs; [2]): 93.5% | activity at 1 µM (HUVECs; [3]): 92.9% | activity at 1 µM (HUVECs; [4]): 107% | activity at 1 µM (HUVECs; [5]): 99.1% | viability at 10 µM (HUVECs; [2]): 91.2% | activity at 10 µM (HUVECs; [3]): 89.3% | activity at 10 µM (HUVECs; [4]): 111% | activity at 10 µM (HUVECs; [5]): 98.4% | viability at 100 µM (HUVECs; [2]): 59.6% | activity at 100 µM (HUVECs; [3]): 61.8% | activity at 100 µM (HUVECs; [4]): 74.7% | activity at 100 µM (HUVECs; [5]): 206% | minimal effective concentration (HUVECs; 24 hr, read-out: huvec.cyto.24hr POD): 5.38 µM | minimal effective concentration (HUVECs; 24 hr, read-out: huvec.mito.24hr POD): 3.31 µM | minimal effective concentration (HUVECs; 24 hr, read-out: huvec.mitoint.24hr POD): 61.2 µM | minimal effective concentration (HUVECs; 24 hr, read-out: huvec.nma.24hr POD): 33.9 µM | viability at 0.01 µM (HUVECs; [6]): 99.3% | viability at 0.1 µM (HUVECs; [6]): 105% | viability at 1 µM (HUVECs; [6]): 93.5% | viability at 10 µM (HUVECs; [6]): 91.2% | viability at 100 µM (HUVECs; [6]): 61.8% | minimal effective concentration (HUVECs; 24 hrs, read-out: huvec.tc.24hrs POD): 5.38 µM | viability at 0.01 µM [1, 7]: 106% | activity at 0.01 µM [1, 8]: 103% | activity at 0.01 µM [1, 9]: 106% | viability at 0.01 µM [1, 10]: 106% | viability at 0.1 µM [1, 7]: 93.3% | activity at 0.1 µM [1, 8]: 129% | activity at 0.1 µM [1, 9]: 92.9% | viability at 0.1 µM [1, 10]: 92.8% | viability at 1 µM [1, 7]: 98.7% | activity at 1 µM [1, 8]: 130% | activity at 1 µM [1, 9]: 98.5% | viability at 1 µM [1, 10]: 98.4% | viability at 10 µM [1, 7]: 97.1% | activity at 10 µM [1, 8]: 109% | activity at 10 µM [1, 9]: 96.8% | viability at 10 µM [1, 10]: 97.1% | viability at 100 µM [1, 7]: 0.07% | activity at 100 µM [1, 8]: 31.5% | activity at 100 µM [1, 9]: 0.16% | viability at 100 µM [1, 10]: 0.16% | minimal effective concentration ([1]; 1.5 h, 90min, read-out: cm.cam.90min POD): 10.8 µM | minimal effective concentration ([1]; 1.5 h, 90min, read-out: cm.mii.90min POD): 41.2 µM | minimal effective concentration ([1]; 1.5 h, 90min, read-out: cm.mito.90min POD): 10.6 µM | minimal effective concentration ([1]; 1.5 h, 90min, read-out: cm.tc.90min POD): 10.8 µM | viability at 0.01 µM [1, 11]: 95.3% | activity at 0.01 µM [1, 12]: 98.6% | activity at 0.01 µM [1, 13]: 93.3% | viability at 0.01 µM [1, 14]: 96.5% | viability at 0.1 µM [1, 11]: 103% | activity at 0.1 µM [1, 12]: 122% | activity at 0.1 µM [1, 13]: 104% | viability at 0.1 µM [1, 14]: 104% | viability at 1 µM [1, 11]: 104% | activity at 1 µM [1, 12]: 111% | activity at 1 µM [1, 13]: 104% | viability at 1 µM [1, 14]: 104% | viability at 10 µM [1, 11]: 91.5% | activity at 10 µM [1, 12]: 107% | activity at 10 µM [1, 13]: 89.6% | viability at 10 µM [1, 14]: 91.7% | viability at 100 µM [1, 11]: 1.67% | activity at 100 µM [1, 12]: 12.2% | activity at 100 µM [1, 13]: 0.34% | viability at 100 µM [1, 14]: 3.82% | minimal effective concentration ([1]; 24 h, read-out: cm.cam.24hrs POD): 8.2 µM | minimal effective concentration ([1]; 24 h, read-out: cm.mii.24hrs POD): 44.6 µM | minimal effective concentration ([1]; 24 h, read-out: cm.mito.24hrs POD): 8.28 µM | minimal effective concentration ([1]; 24 h, read-out: cm.tc.24hrs POD): 8.44 µM
